This is an account of results in ChEMBL document CHEMBL2029243, “Potent and selective pyrazolo[1,5-a]pyrimidine based inhibitors of B-Raf(V600E) kinase with favorable physicochemical and pharmacokinetic properties” (Bioorg Med Chem Lett, 2012).

Series [1] addresses T1, Serine/threonine-protein kinase B-raf (Homo sapiens, UniProt P15056, V600E).
Series [2] concerns the target T1, Serine/threonine-protein kinase B-raf. The source holds these as a separate data set.
The nature of series [3]: AUC in mouse at 30 mg/kg, po administered with 40/10/50 volume of PEG400/EtOH/H2O solution. The series is classed as ADME, organism-based. More on the design: dose 30 mg/kg, route oral. As to conditions: plasma.
Series [4] can be described thus: Clearance in mouse at […], iv. The following applies: in vivo. The series is classed as ADME, organism-based. More on the design: dose 2.5 mg/kg, route intravenous.
The nature of series [5]: Oral bioavailability in mouse at 30 mg/kg. The following applies: in vivo. The series is classed as ADME, organism-based.
Series [6] in a line: Volume of distribution in mouse at […], iv and 30 mg/kg, po. As to conditions: in vivo. The series is classed as ADME, organism-based.
Series [7] is described as follows: Aqueous solubility of the compound at pH 1.2. It counts as physicochemical. The following applies: buffer.
A short description of series [8]: AUC in mouse at 30 mg/kg, po administered with 1% methylcellulose/0.5% Tween 80 in water. The series is classed as ADME, organism-based. Also noted: dose 30 mg/kg, route oral. As to conditions: in vivo.
The nature of a further series: in vitro. The following applies: human, Caco-2.
Series [9] is described as follows: physchem. As to conditions: buffer, pH 6.5.
Description: Aqueous solubility of the compound at pH 6.5
Series [10] can be described thus: physchem. The following applies: buffer, pH 7.4.
Description: Aqueous solubility of the compound at pH 7.4

As usually defined, the IC50 is the point on the concentration scale where inhibition reaches its midpoint. By AUC is commonly meant concentration integrated over time. A higher AUC goes with more exposure. In general, clearance refers to the rate of elimination divided by the concentration. A lower clearance goes with a low capacity for elimination. One may read the bioavailability as the share of a dose that reaches the circulation, judged against a reference dose that is usually intravenous. A low value points to poor availability. In general, solubility refers to the concentration that dissolves in the medium under given conditions. What is called Papp is the rate of passage across a membrane or cell layer, normalised by area and donor concentration. High values mean fast passage, low ones slow passage.

Values after ≈ are worked out from the molar mass of the structure shown. Some results are limits rather than exact numbers.

T1 sequence (P15056 2-766 V600E limits assumed): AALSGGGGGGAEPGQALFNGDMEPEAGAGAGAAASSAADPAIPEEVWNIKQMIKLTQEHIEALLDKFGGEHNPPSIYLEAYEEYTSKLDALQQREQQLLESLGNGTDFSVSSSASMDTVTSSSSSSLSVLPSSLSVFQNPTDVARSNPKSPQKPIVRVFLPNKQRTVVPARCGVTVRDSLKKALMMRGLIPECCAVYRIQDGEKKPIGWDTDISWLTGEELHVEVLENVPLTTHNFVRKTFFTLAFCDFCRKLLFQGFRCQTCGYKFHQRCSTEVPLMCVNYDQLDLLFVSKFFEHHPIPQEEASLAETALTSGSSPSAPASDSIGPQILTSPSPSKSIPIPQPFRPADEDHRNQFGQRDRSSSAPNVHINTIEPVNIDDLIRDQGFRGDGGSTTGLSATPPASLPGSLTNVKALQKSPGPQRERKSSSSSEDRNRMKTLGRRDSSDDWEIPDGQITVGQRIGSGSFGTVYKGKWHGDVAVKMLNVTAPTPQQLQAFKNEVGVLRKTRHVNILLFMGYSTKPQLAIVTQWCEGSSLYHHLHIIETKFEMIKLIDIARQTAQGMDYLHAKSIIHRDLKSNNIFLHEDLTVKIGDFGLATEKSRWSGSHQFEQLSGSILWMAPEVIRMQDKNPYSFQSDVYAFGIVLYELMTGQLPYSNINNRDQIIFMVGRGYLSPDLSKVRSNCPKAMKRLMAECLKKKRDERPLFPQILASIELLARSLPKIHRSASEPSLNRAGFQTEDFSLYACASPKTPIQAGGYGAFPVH
Description for in vitro: Permeability across human Caco2 cells

Take `CCCS(=O)(=O)Nc1ccc(F)c(C(=O)Nc2cnc3ccccc3c2)c1F`: the 50% inhibitory concentration (IC50) in [1] came out at 0.464 µM; in [2] it was 1.38 µM.
The corresponding values for `CCCS(=O)(=O)Nc1ccc(F)c(C(=O)Nc2cnc3cc(C)nn3c2)c1F` are 0.131 µM and 0.248 µM.
Turning to `CCCS(=O)(=O)Nc1ccc(F)c(C(=O)Nc2cnc3cc(OC)nn3c2)c1F`, the figures for the AUC in series [3] and in series [8] were 733 µM·h and 844 µM·h, respectively. The same compound registered a clearance in series [4] of 1 mL/min/kg. In series [5], this compound registered a bioavailability of 98%. This compound also gave a Vd in [6] of 0.16 L/kg. Also, the solubility in series [7] is 18 µg/mL (≈ 42.3 µM); in the series “physchem [9]” it was 21 µg/mL (≈ 49.4 µM); in the series “physchem [10]”, 32 µg/mL (≈ 75.2 µM). The 50% inhibitory concentration (IC50) is 0.043 µM in series [1] and 0.068 µM in series [2]. The same compound showed an apparent permeability (Papp) in the series “in vitro” of 2 ×10⁻⁶ cm/s.
On to `CCCS(=O)(=O)Nc1ccc(F)c(C(=O)Nc2cnc3cc[nH]c3c2)c1F`, for which the IC50 was found to be 0.407 µM in [1] and 1.51 µM in series [2].
Take `CCCS(=O)(=O)Nc1ccc(F)c(C(=O)Nc2cnc3ccnn3c2)c1F`: the IC50 amounted to 0.247 µM in [1] and 0.488 µM in [2].
For `CCCS(=O)(=O)Nc1ccc(F)c(C(=O)Nc2cnc3cc(C(F)(F)F)nn3c2)c1F`, the IC50 was 0.126 µM in [1] and 0.374 µM in [2].
Taken in the same sequence, the figures for `CCCS(=O)(=O)Nc1ccc(F)c(C(=O)Nc2cnc3cc(CC)nn3c2)c1F` were 0.105 µM and 0.228 µM.
`CCCS(=O)(=O)Nc1ccc(F)c(C(=O)Nc2cnc3cc(-c4cccnc4)nn3c2)c1F`: the IC50 in series [1] turned out to be 0.013 µM; in series [2], 0.027 µM.
Consider `CCCS(=O)(=O)Nc1ccc(F)c(C(=O)Nc2cnc3cc(OCCOC)nn3c2)c1F`, for which the IC50 in series [1] came to 0.067 µM; in series [2] it was 0.11 µM.
Taken in the same sequence, the figures for `CCCS(=O)(=O)Nc1ccc(F)c(C(=O)Nc2cnc3cc(-c4cnn(C)c4)nn3c2)c1F` were 0.013 µM and 0.048 µM.
The corresponding values for `CCCS(=O)(=O)Nc1ccc(F)c(C(=O)Nc2cnc3cc(NC(C)C)nn3c2)c1F` are 0.19 µM and 0.395 µM.
As for `CCCS(=O)(=O)Nc1ccc(F)c(C(=O)Nc2cnc3cc(OC(C)C)nn3c2)c1F`, the IC50 in series [1] worked out at 0.149 µM; in [2] it was 0.449 µM.
For the compound `CCCS(=O)(=O)Nc1ccc(F)c(C(=O)Nc2cnc3cc(NC)nn3c2)c1F`, the IC50 in [1] stood at 0.129 µM; in series [2], 0.382 µM.
The corresponding values for `CCCS(=O)(=O)Nc1ccc(F)c(C(=O)Nc2cnc3cc(C4CCCC4)nn3c2)c1F` are 0.128 µM and 0.448 µM.
Regarding `CCCS(=O)(=O)Nc1ccc(F)c(C(=O)Nc2cnc3nccn3c2)c1F`, the IC50 in series [1] was above 10 µM.
As to `CCCS(=O)(=O)Nc1ccc(F)c(C(=O)Nc2cnc3cc(OCC)nn3c2)c1F`, the IC50 in [1] came to 0.083 µM; in series [2], 0.205 µM.
As for `CCCS(=O)(=O)Nc1ccc(F)c(C(=O)Nc2cnc3cc(C4CC4)nn3c2)c1F`, the concentration for half-maximal inhibition (IC50) in series [1] turned out to be 0.124 µM; in series [2], 0.299 µM.
In the case of `CCCS(=O)(=O)Nc1ccc(F)c(C(=O)Nc2cnc3cc(-c4cccc(F)c4)nn3c2)c1F`, the results for the IC50 in [1] and in [2] were 0.019 µM and 0.06 µM, respectively.
The corresponding values for `CCCS(=O)(=O)Nc1ccc(F)c(C(=O)Nc2cnc3cc(N4CCOCC4)nn3c2)c1F` are 0.174 µM and 0.315 µM.
For `CCCS(=O)(=O)Nc1ccc(F)c(C(=O)Nc2cnc3cc(N4CCCC4)nn3c2)c1F`, the IC50 in series [2] was found to be 0.664 µM.
On to `CCCS(=O)(=O)Nc1ccc(F)c(C(=O)Nc2cnc3cc(-c4ccc(F)cc4)nn3c2)c1F`, for which the half-maximal inhibitory concentration (IC50) is 0.011 µM in series [1] and 0.054 µM in series [2].
In turn, `CCCS(=O)(=O)Nc1ccc(F)c(C(=O)Nc2cnc3occc3c2)c1F` came in with an IC50 in series [1] above 10 µM.
With `CCCS(=O)(=O)Nc1ccc(F)c(C(=O)Nc2cnc3[nH]nc(OC)c3c2)c1F`, the results for the AUC in series [3] and in series [8] were 426 µM·h and 105 µM·h, respectively. Also, the clearance in series [4] is 1.3 mL/min/kg. The Vd in series [6] is 0.11 L/kg. Besides, the solubility in series [7] worked out at 3 µg/mL (≈ 7.05 µM). The compound also returned a half-maximal inhibitory concentration (IC50) in [1] of 0.005 µM.
